Assays:
BRK-BaF3 cells = experiment: Cell antiproliferative activity assay (CCK-8), BRK-BaF3; assay type: cell-based; settings: 72 h, CCK-8, 3 days incubation
Summary of the method: (§1)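 Growth inhibition over 3 days, with compound serially diluted 3-fold from a 10 µM top concentration. Cells seeded at 100,000 cells/mL; WT-BaF3 medium carried 10% WEHI supernatant as the IL-3 source. Viability read by CCK-8 OD450 after 2-4 h; IC50 from blank-subtracted curve fit.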

WT-BaF3 cells = experiment: Cell antiproliferative activity assay (CCK-8), WT-BaF3 (broad-spectrum cytotoxicity); assay type: cell-based; settings: 72 h; WT-BaF3 cells (IL-3 supplemented), CCK-8, 3 days incubation
Summary of the method: as §1

GA0119 = experiment: In vitro activity test of gastric cancer PDX (CellTiter-Glo), GA0119; assay type: cell-based; settings: PDX GA0119, gastric cancer with high BRK expression, 168 hours
Experimental: (§2) Patient-derived xenograft (PDX) models are methods in which tumor tissue from cancer patients is transplanted into severely immunodeficient mice for culture and passaging, and used to test compound activity. The compounds of the present invention were tested using three PDX samples (GA0119, GA6208, and GA6871, all being gastric cancers with high BRK expression, all cultured in DMEM).
(§3) Preparation of PDX model tumor cell suspension: PDX model animals were housed in the animal facility, and tumor growth was observed weekly. When the PDX model tumor grew to an appropriate size, the tumor was removed and minced using sterile surgical instruments. Collagenase B digestion solution was added, and digestion was performed at 37°C for approximately 2 hours. Undigested tissue was removed by passing through a cell strainer. The strainer was washed with PBS 3-5 times, and the cell pellet was washed with PBS 4 times. Tumor cells were resuspended in culture medium. ACK lysis buffer was used to remove red blood cells when necessary.
(§4) Cell plating: The above cell suspension was taken and counted. The cell suspension concentration was adjusted to 5.75 × 10^5 cells/mL by dilution with culture medium. 3.5 mL of the cell suspension and 6.5 mL of 1% methylcellulose solution were mixed thoroughly. 100 µL of the cell suspension was added to each well of a 96-well plate (including compound-treated cell plates and T0 control cell plates), followed by incubation overnight under conditions of 37°C, 5% CO2, and 95% humidity.
(§5) Day 0 cell viability reading: The CellTiter-Glo® reagent and T0 control cell culture plate were equilibrated at room temperature for 30 minutes. 100 µL of CellTiter-Glo® reagent was added to each well. The plate was shaken on an orbital shaker for 20 minutes to ensure complete cell lysis. The cell culture plate was then equilibrated at room temperature for 10 minutes, and the chemiluminescence signal was read using an EnVision plate reader.
Day 0 compound treatment: The test compound (stock concentration 10 mM) was taken out and equilibrated at room temperature for use. The compound treatment cell plate was taken out. The test compound solution was added to the corresponding wells. […]
Day 7 cell viability reading: The CellTiter-Glo® reagent and cell culture plate were equilibrated at room temperature for 30 minutes. […] The cell plate was then placed at room temperature for 10 minutes to stabilize the luminescence signal, and the luminescence value was read using an EnVision plate reader.
Data processing: Data were analyzed using GraphPad Prism 9.0 software. A nonlinear sigmoidal curve regression was used to fit the data and generate a dose-response curve, from which the IC50 value was calculated. […] Lum represents the luminescence value.

GA6208 = experiment: In vitro activity test of gastric cancer PDX (CellTiter-Glo), GA6208; assay type: cell-based; settings: PDX GA6208, gastric cancer with high BRK expression, 168 hours
Experimental: as §2, §3, §4, §5
(§6) Day 0 compound treatment: The test compound (stock concentration 10 mM) was taken out and equilibrated at room temperature for use. The compound treatment cell plate was taken out. The test compound solution was added to the corresponding wells. The highest concentration for each compound was 30 µM, with 3-fold serial dilutions, 9 concentration points, each concentration point in triplicate (DMSO concentration normalized). The final concentration of DMSO in each cell well was 0.3%. The dosed 96-well plate was then placed in an incubator at 37°C, 5% CO2, and 95% humidity for continued culture for 168 hours.
(§7) Day 7 cell viability reading: The CellTiter-Glo® reagent and cell culture plate were equilibrated at room temperature for 30 minutes. 100 µL of CellTiter-Glo® reagent was added to each well. The plate was shaken on an orbital shaker for 20 minutes to lyse the cells. The cell plate was then placed at room temperature for 10 minutes to stabilize the luminescence signal, and the luminescence value was read using an EnVision plate reader.
(§8) Data processing: Data were analyzed using GraphPad Prism 9.0 software. A nonlinear sigmoidal curve regression was used to fit the data and generate a dose-response curve, from which the IC50 value was calculated. Cell survival rate (%) = (Lumtest compound - Lummedium control) / (Lumcell control - Lummedium control) × 100%. Lum represents the luminescence value.

GA6871 = experiment: In vitro activity test of gastric cancer PDX (CellTiter-Glo), GA6871; assay type: cell-based; settings: PDX GA6871, gastric cancer with high BRK expression, 168 hours
Experimental: as §2, §3, §4, §5, §6, §7, §8

[1] = tested on: gastric cancer xenograft model GA6208; experiment: In vivo efficacy evaluation of gastric cancer PDX (GA6208); design: species or system Balb/c nude mice; settings: for Day 35 tumor volume (mean ± SEM): I-21 100 mg/kg oral gavage twice daily, I-81 100/80 mg/kg oral gavage twice daily, cisplatin 3 mg/kg tail vein once weekly, in mm³ (unit assumed); for Day 35 TGI (%): tumor growth inhibition vs vehicle control, same dosing as tumor volume
Text: Tumor tissue was collected from tumor-bearing mice of the gastric cancer xenograft model GA6208, cut into tumor pieces of 2-3 mm in diameter, and subcutaneously inoculated at the right front scapular region of Balb/c nude mice. When the mean tumor volume of the tumor-bearing mice reached approximately 150 mm^3 (100-200 mm^3), the mice were randomly divided into 4 groups of 8 mice each, and administered as follows: vehicle control (0.5% CMC-Na solution, oral gavage, twice daily), compound I-21 (100 mg/kg, oral gavage, twice daily), compound I-81 (100 mg/kg for the first 8 days, then 80 mg/kg for the subsequent 27 days, oral gavage, twice daily), and cisplatin (3 mg/kg, tail vein injection, once weekly), for a total of 35 days.

T47D cells = experiment: Cell antiproliferative activity assay (CCK-8), T47D; assay type: cell-based; settings: Homo sapiens, 72 h, breast cancer cell line T47D, incubation for 3 days
Experimental: BRK-BaF3, WT-BaF3, WEHI cell line, and breast cancer cell line T47D were cultured using RPMI 1640 Basal medium or DMEM (Dulbecco's Modified Eagle Medium) (Shanghai Peiyuan Biotechnology, L220KJ), supplemented with 10% FBS (Gibco, REF 10099-141C) and 1% P/S (Shanghai Peiyuan Biotechnology, S110JV), in an incubator (Thermo 3020) at 37°C with 5% CO2. Cell viability was above 95%. Cells were passaged at a 3:1 ratio every 3-4 days. For WT-BaF3 cells, WEHI cells were first cultured, and their culture supernatant was filtered through a 0.22 µm filter. This supernatant was added at 10% to the regular culture medium to supplement IL-3 required for WT-BaF3 cell proliferation, which served as the culture medium for WT-BaF3. For testing, cells were first collected and counted, then prepared into a cell suspension at 100,000 cells/mL and plated at 100 µL per well. Drug concentrations started from 10 µM and were serially diluted 3:1. After incubation for 3 days, 20 µL of CCK-8 detection reagent (Targetmol C005) was added to each well. After incubation for 2-4 hours, OD450 was measured using a microplate reader (Varioskan LUX, Thermo Scientific). After subtracting the blank background, the curve was fitted and the IC50 was calculated using XLfit software.
In addition, the following table exemplarily lists the IC50 values of some compounds of the present invention against T47D cells.

| SMILES | IC50 (BRK-BaF3 cells) | IC50 (GA0119) | IC50 (GA6208) | IC50 (GA6871) | IC50 (T47D cells) | IC50 (WT-BaF3 cells) | Day 35 tumor volume (mean ± SEM) [1] | Day 35 TGI (%) [1] |
| --- | --- | --- | --- | --- | --- | --- | --- | --- |
| Cc1nn(CCO)cc1Nc1ncc2cc(-c3cccnc3)cc(C(C)C)c2n1 [I-21] | ≤ 20 nM | 1140 nM | 620 nM | 2130 nM |  | > 2500 nM | 782.88±71.02 | 44.59% |
| Cc1nn(CCO)cc1Nc1ncc2cc(-c3nccnc3C)cc(C(C)C)c2n1 [I-81] | ≤ 20 nM | 4540 nM | 3920 nM | 7130 nM |  | > 2500 nM | 595.03±30.63 | 57.89% |
| Cc1nn(CCO)cc1Nc1ncc2cc(-c3nccnc3C)cc(C(F)(F)F)c2n1 [I-109] | ≤ 20 nM |  | 8530 nM | 17000 nM |  | > 2500 nM |  |  |
| COc1c(P(C)(C)=O)ccc(Nc2ncc3cc(-c4nccnc4C)cc(C4CC4)c3n2)c1F [II-69] | ≤ 20 nM | 8010 nM | 5630 nM | 9280 nM | ≤ 500 nM | > 2500 nM |  |  |
| N.N.[Cl][Pt][Cl] [cisplatin, reference compound] |  | 1380 nM | 298 nM | 4280 nM |  |  | 1250.42±137.64 | 11.50% |

Further lines, with some results ahead:

| IC50 (BRK-BaF3 cells) | IC50 (GA0119) | IC50 (GA6208) | IC50 (GA6871) | IC50 (T47D cells) | SMILES | IC50 (WT-BaF3 cells) | Day 35 tumor volume (mean ± SEM) [1] | Day 35 TGI (%) [1] |
| --- | --- | --- | --- | --- | --- | --- | --- | --- |
| ≤ 20 nM |  |  |  | 500 to 1000 nM | Cc1nccnc1-c1cc(C(C)C)c2nc(Nc3cn(C)nc3Cl)ncc2c1 [III-101] | 500 to 2500 nM |  |  |
| ≤ 20 nM |  |  |  | 500 to 1000 nM | Cc1nccnc1-c1cc(C(C)C)c2nc(Nc3cn(C)nc3C(F)F)ncc2c1 [III-102] | > 2500 nM |  |  |
| ≤ 20 nM |  |  |  | ≤ 500 nM | [2H]C([2H])([2H])n1cc(Nc2ncc3cc(-c4nccnc4C)cc(C(C)C)c3n2)c(C)n1 [III-103] | 100 to 500 nM |  |  |
| ≤ 20 nM |  |  |  | ≤ 500 nM | Cc1ccncc1-c1cc(C(C)C)c2nc(Nc3cn(C)nc3C)ncc2c1 [III-120] | 100 to 500 nM |  |  |
| ≤ 20 nM |  |  |  | ≤ 500 nM | Cc1ccc(C#N)cc1-c1cc(C(C)C)c2nc(Nc3cn(C)nc3C)ncc2c1 [III-130] | 500 to 2500 nM |  |  |
| ≤ 20 nM |  |  |  | ≤ 500 nM | Cc1nccnc1-c1cc(C2CC2)c2nc(Nc3cnn(CC(=O)N(C)C)c3)ncc2c1 [III-132] | 500 to 2500 nM |  |  |
